Measurements reported in patent publication US20190070174A1, “METHODS OF TREATING NEURODEGENERATIVE DISEASES” (priority 2016, published 2019).

Tests used:
[1] = test system: high molecular weight (HMW) ATXN3 species; experiment: ATXN3 immunoblotting of protein lysates from fly heads; format: in vivo, Drosophila
[2] = Pharmacokinetics after intraperitoneal injection; format: in vivo, mouse; details: 15 mg/kg IP, mice
human ATXN3 transcripts = experiment: Subchronic treatment of Q84 mice, quantitative RT-PCR; format: in vivo; details: brainstem, 15 mg/kg IP daily for 10 days
Protocol: (§1) YACMJD84.2 transgenic mice were housed in cages with a maximum number of five animals and maintained in a standard 12-hour light/dark cycle with food and water ad libitum. Genotyping was performed using DNA isolated from tail biopsy at the time of weaning, and genotypes of all studied mice were confirmed using DNA extracted from tails collected post-mortem. […] Five hours after the final injection, mice were anesthetized with ketamine/xylazine and perfused transcardially with phosphate buffered saline (PBS) (for RNA and protein studies), and brains were immediately placed on dry ice and stored at −80° C.
(§2) Reverse transcription of 1.5 μg of total RNA per sample was performed using the iScript cDNA synthesis kit (Bio-RAD). Human ATXN3 and mouse Atxn3, Drd2, 5HT1A, 5HT2A and Gapdh (housekeeping) transcript levels were accessed by quantitative real-time PCR. Relative gene expression was determined using the ΔΔCT method, normalizing for Gapdh mRNA levels.

mouse Atxn3 transcripts = experiment: as above; format: in vivo; details: brainstem, 15 mg/kg IP daily for 10 days
Protocol: as §1, §2

5HT2A transcripts = experiment: as above; format: in vivo, mouse; details: brainstem of Q84 mice
Protocol: as §1, §2

ATXN3Q26 = experiment: Thioflavin T (ThT) fluorescence fibril formation assay; format: biochemical, human; details: ATXN3Q26 10 μM, compound 400 μM
Protocol: (§3) pGEX-6P1 plasmids encoding GST-ATXN3Q26 and GST-ATXN3Q55 were transformed in Rosetta (DE3) BL21 cells. Colonies grown overnight in LB/ampicillin/chloramphenicol plates at 37° C. were resuspended in 150 mL of the same selection medium and incubated at 37° C., 230 rpm for 2 hours. Bacterial cultures of 1 L of medium were prepared by inoculating 50 mL of the pre-culture and incubating at 37° C., 230 rpm until reaching an OD (600 nm) of 0.6 to 0.8. Expression of fusion proteins was then induced by adding 1 mM isopropyl-1-thio-D-galactopyranoside (IPTG) for 3 hours at 37° C. Cells were collected by centrifugation and stored at −20° C. […] Chromatography fractions were analyzed by SDS-PAGE, and the ones containing pure proteins were concentrated and protein concentration was determined in the Nanodrop (Thermo Scientific) by absorption at 280 nm.
(§4) Samples and blank control (only buffer) (110 μL) were dispensed in each well of a Black/Clear flat bottom 96-well plate (Corning), which was sealed and incubated at 37° C. with agitation in a FLUOstar Omega (BMG Labtech Inc) plate reader. Fluorescence of three replicates of each sample was measured every 10 min for up to 5 days. The […] wavelengths of the filter were 440 nm and 490 nm, respectively, and readings were taken using 90% gain adjustment. Values for protein solutions were normalized to readings of blank buffer.

ATXN3Q55 [3] = experiment: as above; format: biochemical, human; details: ATXN3Q55 10 μM, compound 400 μM
Protocol: as §3, §4

ATXN3Q55 [4] = experiment: Native PAGE analysis at the end of the ThT assay; format: biochemical, human

## O=C1CCc2ccc(OCCCCN3CCN(c4cccc(Cl)c4Cl)CC3)cc2N1 [aripiprazole]
[1]; day 12, 50 μM
  HMW ATXN3 species, of levels in vehicle-treated flies: 0.73
[1]; day 15, 50 μM
  HMW ATXN3 species, of levels in vehicle-treated flies: 0.41
[1]; day 19, 50 μM
  HMW ATXN3 species, of levels in vehicle-treated flies: 0.53
[2]
  time of maximal concentration in the brain post-injection: 30 min
Human ATXN3 transcripts
  human ATXN3 transcript levels vs vehicle-treated mice: similar
Mouse Atxn3 transcripts
  mouse Atxn3 transcript levels vs vehicle-treated mice: similar
5HT2A transcripts
  5HT2A transcripts: increasing
ATXN3Q26
  fibril formation by normal ATXN3Q26: did not interfere with fibril formation
ATXN3Q55 [3]
  kinetics of ATXN3Q55 fibril formation in the presence or absence of compound: identical
ATXN3Q55 [4]
  HMW or other species of ATXN3Q55: no differences
